Test system: WT MEF EVs
Assay: Quantitative LC-MS/MS proteomics of EVs from ISRIB-treated WT MEF cultures
Type: cell-based, mouse

O=C(COc1ccc(Cl)cc1)NC1CCC(NC(=O)COc2ccc(Cl)cc2)CC1 (centres unmarked) [ISRIB, reference compound]
Hnrnpc (HNRNPC) EV abundance Log2_FC (WT+ISRIB/WT, 50 nM, 24 h): 1.478
Ipo9 (IPO9) EV abundance Cohen's d (WT+ISRIB/WT, 50 nM, 24 h): −0.4661
Ipo9 (IPO9) EV abundance Log2_FC (WT+ISRIB/WT, 50 nM, 24 h): −0.5386
Jam3 (JAM3) EV abundance Cohen's d (WT+ISRIB/WT, 50 nM, 24 h): −0.3267
Jam3 (JAM3) EV abundance Log2_FC (WT+ISRIB/WT, 50 nM, 24 h): 0.373
Lipg (LIPG) EV abundance Cohen's d (WT+ISRIB/WT, 50 nM, 24 h): 0.7395
Lipg (LIPG) EV abundance Log2_FC (WT+ISRIB/WT, 50 nM, 24 h): −0.3639
Lrrc59 (LRRC59) EV abundance Cohen's d (WT+ISRIB/WT, 50 nM, 24 h): −0.6884
Lrrc59 (LRRC59) EV abundance Log2_FC (WT+ISRIB/WT, 50 nM, 24 h): 0.3431
Mapk3 (MAPK3) EV abundance Cohen's d (WT+ISRIB/WT, 50 nM, 24 h): −0.8739
Mapk3 (MAPK3) EV abundance Log2_FC (WT+ISRIB/WT, 50 nM, 24 h): −0.163
Mars (MARS1) EV abundance Cohen's d (WT+ISRIB/WT, 50 nM, 24 h): 0.05955
Mars (MARS1) EV abundance Log2_FC (WT+ISRIB/WT, 50 nM, 24 h): −0.3717
Mrc2 (MRC2) EV abundance Cohen's d (WT+ISRIB/WT, 50 nM, 24 h): 0.2117
Mrc2 (MRC2) EV abundance Log2_FC (WT+ISRIB/WT, 50 nM, 24 h): −0.2942
Myh9 (MYH9) EV abundance Cohen's d (WT+ISRIB/WT, 50 nM, 24 h): −0.02365
Myh9 (MYH9) EV abundance Log2_FC (WT+ISRIB/WT, 50 nM, 24 h): 0.05232
Ndnf (NDNF) EV abundance Cohen's d (WT+ISRIB/WT, 50 nM, 24 h): 1.071
Ndnf (NDNF) EV abundance Log2_FC (WT+ISRIB/WT, 50 nM, 24 h): −0.1375
Pcmt1 (PCMT1) EV abundance Cohen's d (WT+ISRIB/WT, 50 nM, 24 h): −0.8553
Pcmt1 (PCMT1) EV abundance Log2_FC (WT+ISRIB/WT, 50 nM, 24 h): −0.06624
Pi4ka (PI4KA) EV abundance Cohen's d (WT+ISRIB/WT, 50 nM, 24 h): −0.4893
Pi4ka (PI4KA) EV abundance Log2_FC (WT+ISRIB/WT, 50 nM, 24 h): 0.3826
Pitpnb (PITPNB) EV abundance Cohen's d (WT+ISRIB/WT, 50 nM, 24 h): −1.114
Pitpnb (PITPNB) EV abundance Log2_FC (WT+ISRIB/WT, 50 nM, 24 h): 1.461
Prpsap2 (PRPSAP2) EV abundance Cohen's d (WT+ISRIB/WT, 50 nM, 24 h): 0.2158
Prpsap2 (PRPSAP2) EV abundance Log2_FC (WT+ISRIB/WT, 50 nM, 24 h): −0.6725
Psmc5 (PSMC5) EV abundance Cohen's d (WT+ISRIB/WT, 50 nM, 24 h): 0.4267
Psmc5 (PSMC5) EV abundance Log2_FC (WT+ISRIB/WT, 50 nM, 24 h): −0.3622
Psmd12 (PSMD12) EV abundance Cohen's d (WT+ISRIB/WT, 50 nM, 24 h): 0.00373
Psmd12 (PSMD12) EV abundance Log2_FC (WT+ISRIB/WT, 50 nM, 24 h): −0.3805
Psme4 (PSME4) EV abundance Cohen's d (WT+ISRIB/WT, 50 nM, 24 h): −0.8162
Psme4 (PSME4) EV abundance Log2_FC (WT+ISRIB/WT, 50 nM, 24 h): −0.7974
Ptma (PTMA) EV abundance Cohen's d (WT+ISRIB/WT, 50 nM, 24 h): 0.6355
Ptma (PTMA) EV abundance Log2_FC (WT+ISRIB/WT, 50 nM, 24 h): 2.638
Rap2b (RAP2B) EV abundance Cohen's d (WT+ISRIB/WT, 50 nM, 24 h): 0.3788
Rap2b (RAP2B) EV abundance Log2_FC (WT+ISRIB/WT, 50 nM, 24 h): −0.1245
Rbm3 (RBM3) EV abundance Cohen's d (WT+ISRIB/WT, 50 nM, 24 h): −0.3159
Rbm3 (RBM3) EV abundance Log2_FC (WT+ISRIB/WT, 50 nM, 24 h): 0.2028
Rhoa (RHOA) EV abundance Cohen's d (WT+ISRIB/WT, 50 nM, 24 h): −1.25
Rhoa (RHOA) EV abundance Log2_FC (WT+ISRIB/WT, 50 nM, 24 h): −0.00598
Rpl10 (RPL10) EV abundance Cohen's d (WT+ISRIB/WT, 50 nM, 24 h): −0.35
Rpl10 (RPL10) EV abundance Log2_FC (WT+ISRIB/WT, 50 nM, 24 h): 0.00077
Rpl13a (RPL13A) EV abundance Cohen's d (WT+ISRIB/WT, 50 nM, 24 h): 0.3123
Rpl13a (RPL13A) EV abundance Log2_FC (WT+ISRIB/WT, 50 nM, 24 h): 0.04217
Rps13 (RPS13) EV abundance Cohen's d (WT+ISRIB/WT, 50 nM, 24 h): −0.2269
Rps13 (RPS13) EV abundance Log2_FC (WT+ISRIB/WT, 50 nM, 24 h): 0.2809
Sec31a (SEC31A) EV abundance Cohen's d (WT+ISRIB/WT, 50 nM, 24 h): −0.3764
Sec31a (SEC31A) EV abundance Log2_FC (WT+ISRIB/WT, 50 nM, 24 h): −0.2838
Slc2a1 (SLC2A1) EV abundance Cohen's d (WT+ISRIB/WT, 50 nM, 24 h): −0.34
Slc2a1 (SLC2A1) EV abundance Log2_FC (WT+ISRIB/WT, 50 nM, 24 h): 0.08012
Stom (STOM) EV abundance Cohen's d (WT+ISRIB/WT, 50 nM, 24 h): −0.7279
Stom (STOM) EV abundance Log2_FC (WT+ISRIB/WT, 50 nM, 24 h): 0.1135
Tardbp (TARDBP) EV abundance Cohen's d (WT+ISRIB/WT, 50 nM, 24 h): −0.3087
Tardbp (TARDBP) EV abundance Log2_FC (WT+ISRIB/WT, 50 nM, 24 h): −0.06285
Tgfb2 (TGFB2) EV abundance Cohen's d (WT+ISRIB/WT, 50 nM, 24 h): 0.6984
Tgfb2 (TGFB2) EV abundance Log2_FC (WT+ISRIB/WT, 50 nM, 24 h): −0.319
Tln1 (TLN1) EV abundance Cohen's d (WT+ISRIB/WT, 50 nM, 24 h): −0.39
Tln1 (TLN1) EV abundance Log2_FC (WT+ISRIB/WT, 50 nM, 24 h): −0.05074
Tln2 (TLN2) EV abundance Cohen's d (WT+ISRIB/WT, 50 nM, 24 h): −0.7484
Tln2 (TLN2) EV abundance Log2_FC (WT+ISRIB/WT, 50 nM, 24 h): −0.02524
Tubb1 (TUBB1) EV abundance Cohen's d (WT+ISRIB/WT, 50 nM, 24 h): 0.3005
Tubb1 (TUBB1) EV abundance Log2_FC (WT+ISRIB/WT, 50 nM, 24 h): 0.1945
Usp7 (USP7) EV abundance Cohen's d (WT+ISRIB/WT, 50 nM, 24 h): −0.3328
Usp7 (USP7) EV abundance Log2_FC (WT+ISRIB/WT, 50 nM, 24 h): −0.8347
Wdr26 (WDR26) EV abundance Cohen's d (WT+ISRIB/WT, 50 nM, 24 h): −0.2688
Wdr26 (WDR26) EV abundance Log2_FC (WT+ISRIB/WT, 50 nM, 24 h): −0.05756
Zyx (ZYX) EV abundance Cohen's d (WT+ISRIB/WT, 50 nM, 24 h): −0.131
Zyx (ZYX) EV abundance Log2_FC (WT+ISRIB/WT, 50 nM, 24 h): 0.1801
Pearson r between DYT genotype effects and ISRIB effects (entire proteome): 0.37
Pearson r between DYT genotype effects and ISRIB effects (genotype-disrupted proteins): 0.40

Source: patent US20260266848A1, “COMPOSITIONS AND METHODS FOR DIAGNOSING AND TREATING DYSTONIA” (Duke University, priority 2023, published 2026)
